Results taken from PMC3491360 (ACS medicinal chemistry letters, 2012).
Entries after “also recorded” stand apart in the source; their conditions may differ.

Experiments:
hA2AAR = hA2AAR (Homo sapiens, UniProt P29274); settings: read-out: Affinity (Ki) hA2A; HEK293 cell membranes; ref Melman et al.[19]; cited from earlier work
hA3AR [1] = target: T1, hA3AR (Homo sapiens, UniProt P0DMS8); settings: read-out: Affinity (Ki) hA3; CHO cell membranes; ref Melman et al.[19]; cited from earlier work
T1 sequence (P0DMS8 1-318): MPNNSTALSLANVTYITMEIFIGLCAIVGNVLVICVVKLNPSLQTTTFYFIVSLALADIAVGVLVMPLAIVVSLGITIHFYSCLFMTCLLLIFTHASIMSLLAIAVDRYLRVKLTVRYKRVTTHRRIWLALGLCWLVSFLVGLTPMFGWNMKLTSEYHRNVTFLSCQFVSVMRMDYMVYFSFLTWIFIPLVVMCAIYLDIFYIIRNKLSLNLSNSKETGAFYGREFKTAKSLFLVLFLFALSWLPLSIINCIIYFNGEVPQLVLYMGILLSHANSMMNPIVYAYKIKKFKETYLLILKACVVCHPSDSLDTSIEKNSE

hA3AR [2] = target: T1, hA3AR; settings: at 10 µM, relative to 10 µM NECA (=100%); ref Melman et al.[19]; cited from earlier work
hA1AR = target: T2, hA1AR (Homo sapiens, UniProt P30542); settings: read-out: Affinity (Ki) hA1; CHO cell membranes; ref Melman et al.[19]; cited from earlier work
T2 sequence (P30542 1-326): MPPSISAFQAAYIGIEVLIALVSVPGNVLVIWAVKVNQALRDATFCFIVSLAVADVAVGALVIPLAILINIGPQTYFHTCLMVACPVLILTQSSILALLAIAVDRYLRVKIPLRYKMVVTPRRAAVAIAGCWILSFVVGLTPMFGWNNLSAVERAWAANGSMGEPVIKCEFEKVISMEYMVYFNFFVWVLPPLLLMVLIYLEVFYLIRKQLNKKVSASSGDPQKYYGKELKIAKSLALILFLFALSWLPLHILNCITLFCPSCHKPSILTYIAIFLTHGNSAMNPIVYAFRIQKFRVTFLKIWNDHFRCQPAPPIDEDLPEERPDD

hA3AR [3] = target: T1, hA3AR; assay type: cell-based; settings: in words, from cyclic AMP assay at 10 µM

Chain of hA2AAR (P29274 whole entry): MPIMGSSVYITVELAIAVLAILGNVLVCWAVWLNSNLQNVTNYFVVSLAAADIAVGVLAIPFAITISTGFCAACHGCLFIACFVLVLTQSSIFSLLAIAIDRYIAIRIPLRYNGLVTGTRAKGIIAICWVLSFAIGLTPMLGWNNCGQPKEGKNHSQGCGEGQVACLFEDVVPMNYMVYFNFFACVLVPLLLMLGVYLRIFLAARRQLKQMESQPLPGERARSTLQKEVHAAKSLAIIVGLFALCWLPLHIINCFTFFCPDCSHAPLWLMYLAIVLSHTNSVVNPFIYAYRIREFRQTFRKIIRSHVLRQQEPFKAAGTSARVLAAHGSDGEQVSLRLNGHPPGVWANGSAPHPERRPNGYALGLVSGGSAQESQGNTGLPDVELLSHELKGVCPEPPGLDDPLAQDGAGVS

| Structure (SMILES) | functional character at the hA3AR (hA3AR [3]) | other results |
| --- | --- | --- |
| CNC(=O)[C@@]12C[C@@H]1[C@@H](n1cnc3c(NCc4cccc(Cl)c4)nc(Cl)nc31)[C@H](O)[C@@H]2O [Compound 1] | – | Ki (hA2AAR): 2300 ± 100 nM |
| O[C@@H]1[C@H](O)[C@@H]2C[C@@H]2[C@H]1n1cnc2c(NCc3cccc(I)c3)nc(Cl)nc21 [Compound 2a] | – | Ki (hA3AR [1]): 1.44 nM; %Efficacy hA3 (hA3AR [2]): 1.0±3.2% |
| OC1C(O)C(n2cnc3c(NCc4cccc(Cl)c4)nc(Cl)nc32)C2CC12 (stereo not shown) [Compound 2b] | – | Ki (hA1AR): 3070 nM; Ki (hA2AAR): 4510 nM; %Efficacy hA3 (hA3AR [2]): 2.9±3.7% |
| CNc1nc(C#Cc2ccccc2Cl)nc2c1ncn2[C@H]1[C@H](O)[C@H](O)[C@@H]2C[C@@H]21 [Compound 5] | antagonists | – |
| CONc1nc(C#Cc2ccccc2)nc2c1ncn2[C@H]1[C@H](O)[C@H](O)[C@@H]2C[C@@H]21 [Compound 6] | low-efficacy partial agonists | – |
| CCNc1nc(C#Cc2ccccc2)nc2c1ncn2[C@H]1[C@H](O)[C@H](O)[C@@H]2C[C@@H]21 [Compound 8] | antagonists | – |
| CCNc1nc(C#Cc2ccccc2Cl)nc2c1ncn2[C@H]1[C@H](O)[C@H](O)[C@@H]2C[C@@H]21 [Compound 9] | antagonists | – |
| O[C@@H]1[C@H](O)[C@@H]2C[C@@H]2[C@H]1n1cnc2c(NCc3cccc(Cl)c3)nc(C#Cc3ccccc3Cl)nc21 [Compound 12] | low-efficacy partial agonists | – |
| O[C@@H]1[C@H](O)[C@@H]2C[C@@H]2[C@H]1n1cnc2c(NCCc3ccccc3)nc(C#Cc3ccccc3)nc21 [Compound 15] | selective antagonist; also recorded: antagonists | – |
| O[C@@H]1[C@H](O)[C@@H]2C[C@@H]2[C@H]1n1cnc2c(NCCc3ccccc3)nc(C#Cc3ccccc3Cl)nc21 [Compound 16] | low-efficacy partial agonists | – |
